Results: PubChem BioAssay AID248 (DTP/NCI, 2004)
Toxic doses and inconclusive results are not listed. Rule as the data show it: active = T/C of 150% or more; inactive = T/C below 125%.

Tested on: L1210 leukemia ip in BDF1 mice, survival T/C
Experiment: NCI In Vivo Anticancer Drug Screen. Data for tumor model L1210 Leukemia (intraperitoneal) in B6D2F1 (BDF1) mice
Settings: endpoint: mean survival time, higher = longer survival
How it was run: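 Antitumor effect is assessed in tumor-bearing animals. Survival in the compound arm is compared with a vehicle-dosed control arm and expressed as their quotient.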

[1] = dose: 100.0 mg/kg/injection, schedule: Q01DX009 (ip), vehicle: saline with Tween-80
[2] = dose: 200.0 mg/kg/injection, schedule: Q01DX009 (ip), vehicle: saline with Tween-80
[3] = dose: 400.0 mg/kg/injection, schedule: Q01DX009 (ip), vehicle: saline with Tween-80
[4] = dose: 100.0 mg/kg/injection, schedule: Q04DX003 (ip), vehicle: saline with Tween-80
[5] = dose: 200.0 mg/kg/injection, schedule: Q04DX003 (ip), vehicle: saline with Tween-80
[6] = dose: 25.0 mg/kg/injection, schedule: Q04DX003 (ip), vehicle: saline with Tween-80
[7] = dose: 50.0 mg/kg/injection, schedule: Q04DX003 (ip), vehicle: saline with Tween-80
[8] = dose: 100.0 mg/kg/injection, schedule: Q01DX001 (ip), vehicle: Klucel (hydroxypropylcellulose) (HPC)
[9] = dose: 100.0 mg/kg/injection, schedule: Q01DX009 (ip), vehicle: Klucel (hydroxypropylcellulose) (HPC)
[10] = dose: 200.0 mg/kg/injection, schedule: Q01DX001 (ip), vehicle: Klucel (hydroxypropylcellulose) (HPC)
[11] = dose: 200.0 mg/kg/injection, schedule: Q01DX009 (ip), vehicle: Klucel (hydroxypropylcellulose) (HPC)
[12] = dose: 400.0 mg/kg/injection, schedule: Q01DX009 (ip), vehicle: Klucel (hydroxypropylcellulose) (HPC)
[13] = dose: 100.0 mg/kg/injection, schedule: Q04DX002 (ip), vehicle: saline with Tween-80
[14] = dose: 100.0 mg/kg/injection, schedule: Q01DX001 (ip), vehicle: carboxymethylcellulose (CMC)
[15] = dose: 200.0 mg/kg/injection, schedule: Q01DX001 (ip), vehicle: carboxymethylcellulose (CMC)
[16] = dose: 400.0 mg/kg/injection, schedule: Q01DX001 (ip), vehicle: carboxymethylcellulose (CMC)
[17] = dose: 100.0 mg/kg/injection, schedule: Q01DX001 (ip), vehicle: saline
[18] = dose: 200.0 mg/kg/injection, schedule: Q01DX001 (ip), vehicle: saline
[19] = dose: 400.0 mg/kg/injection, schedule: Q01DX001 (ip), vehicle: saline

Measured: T/C

N=c1c2c(N)nc(N)nc2c2ccccc2n1O
inactive: dose: 50.0 mg/kg/injection, schedule: Q04DX002 (ip), vehicle: saline 97 % of control | dose: 100.0 mg/kg/injection, schedule: Q04DX002 (ip), vehicle: saline 104 % of control | dose: 200.0 mg/kg/injection, schedule: Q04DX002 (ip), vehicle: saline 101 % of control

Cc1nnc(N)s1
inactive: dose: 100.0 mg/kg/injection, schedule: Q01DX001 (ip), vehicle: other 102 % of control | [1] 95 % of control | dose: 100.0 mg/kg/injection, schedule: Q04DX003 (ip), vehicle: other 104 % of control | dose: 200.0 mg/kg/injection, schedule: Q01DX001 (ip), vehicle: other 102 % of control | [2] 92 % of control | dose: 200.0 mg/kg/injection, schedule: Q04DX003 (ip), vehicle: other 95 % of control | dose: 400.0 mg/kg/injection, schedule: Q01DX001 (ip), vehicle: other 100 % of control | [3] 93 % of control | dose: 400.0 mg/kg/injection, schedule: Q04DX003 (ip), vehicle: other 98 % of control

Clc1ccc(Cl)c(N=NNc2cc(Cl)ccc2Cl)c1
inactive: [1] 101 % of control | [4] 98 % of control | [2] 101 % of control | [5] 101 % of control | [3] 103 % of control | dose: 400.0 mg/kg/injection, schedule: Q04DX003 (ip), vehicle: saline with Tween-80 96 % of control

CC(C)C12CCC(=O)C=C1CCCC2OC(=O)c1ccccc1C(=O)O (centres undefined)
inactive: [4] 101 % of control | [5] 100 % of control

CC(=O)c1ccccc1OCC(O)CN1CCN(c2ccccc2)CC1 (centres undefined)
inactive: dose: 25.0 mg/kg/injection, schedule: Q01DX009 (ip), vehicle: saline with Tween-80 94 % of control | [6] 100 % of control | dose: 50.0 mg/kg/injection, schedule: Q01DX009 (ip), vehicle: saline with Tween-80 101 % of control | [7] 103 % of control | [1] 101 % of control | [4] 97 % of control

C[Se]c1nc2c(=O)[nH]cnc2n1C1OC(CO)C(O)C1O (centres undefined)
inactive: dose: 100.0 mg/kg/injection, schedule: Q01DX005 (ip), vehicle: saline 103 % of control | dose: 200.0 mg/kg/injection, schedule: Q01DX005 (ip), vehicle: saline 111 % of control

CCSC(=S)n1c2ccccc2c2ccccc21
inactive: [8] 98 % of control | [9] 101 % of control | [10] 101 % of control | [11] 96 % of control | dose: 400.0 mg/kg/injection, schedule: Q01DX001 (ip), vehicle: Klucel (hydroxypropylcellulose) (HPC) 92 % of control | [12] 101 % of control

COc1ccc(C(=O)c2ccc([N+](=O)[O-])cc2)c(OC)c1
inactive: [8] 101 % of control | [10] 111 % of control

c1ccc(C2CC2NC2=NCCO2)cc1 (centres undefined)
inactive: dose: 12.5 mg/kg/injection, schedule: Q04DX002 (ip), vehicle: saline with Tween-80 104 % of control | dose: 25.0 mg/kg/injection, schedule: Q04DX002 (ip), vehicle: saline with Tween-80 101 % of control | dose: 50.0 mg/kg/injection, schedule: Q04DX002 (ip), vehicle: saline with Tween-80 96 % of control | [13] 93 % of control

Nc1ccc2nc3c(N)ccc(N)c3nc2c1
inactive: [13] 97 % of control | dose: 200.0 mg/kg/injection, schedule: Q04DX002 (ip), vehicle: saline with Tween-80 105 % of control | dose: 400.0 mg/kg/injection, schedule: Q04DX002 (ip), vehicle: saline with Tween-80 105 % of control

COc1cc(CNC(=O)/C(C)=C/Cl)ccc1O
inactive: dose: 12.5 mg/kg/injection, schedule: Q04DX003 (ip), vehicle: saline with Tween-80 96 % of control | [6] 96 % of control | [7] 103 % of control

COc1c(NC(=O)c2ccc(C(=O)Nc3cccc([N+](=O)[O-])c3OC)cc2)cccc1[N+](=O)[O-]
inactive: [9] 97 % of control | [11] 100 % of control | [12] 97 % of control

Cc1cc([N+](=O)[O-])ccc1I
inactive: dose: 50.0 mg/kg/injection, schedule: Q01DX001 (ip), vehicle: carboxymethylcellulose (CMC) 101 % of control | [14] 95 % of control | [15] 95 % of control | [16] 90 % of control

CCC(N)CO (centres undefined)
inactive: [17] 97 % of control | [18] 106 % of control

CC(Cc1ccccc1)NC1=NCCO1 (centres undefined)
inactive: [1] 91 % of control | [2] 91 % of control | [3] 89 % of control

CC1CNC(=S)N1 (centres undefined)
inactive: dose: 100.0 mg/kg/injection, schedule: Q04DX002 (ip), vehicle: Klucel (hydroxypropylcellulose) (HPC) 106 % of control | dose: 200.0 mg/kg/injection, schedule: Q04DX002 (ip), vehicle: Klucel (hydroxypropylcellulose) (HPC) 103 % of control | dose: 400.0 mg/kg/injection, schedule: Q04DX002 (ip), vehicle: Klucel (hydroxypropylcellulose) (HPC) 106 % of control

Cc1ccc(S(=O)(=O)Nc2ccccc2N=Cc2ccc(N(CCCl)CCCl)cc2C)cc1
inactive: [14] 101 % of control | [15] 103 % of control | [16] 86 % of control

CC(=O)c1cc2c(cc1C)OCO2
inactive: [17] 103 % of control | [18] 97 % of control | [19] 101 % of control

NC(=O)c1ccc[n+](Cc2ccccc2)c1
inactive: dose: 37.5 mg/kg/injection, schedule: Q04DX003 (ip), vehicle: saline 97 % of control | dose: 75.0 mg/kg/injection, schedule: Q04DX003 (ip), vehicle: saline 94 % of control | dose: 100.0 mg/kg/injection, schedule: Q01DX009 (ip), vehicle: saline 100 % of control | dose: 150.0 mg/kg/injection, schedule: Q04DX003 (ip), vehicle: saline 95 % of control | dose: 200.0 mg/kg/injection, schedule: Q01DX009 (ip), vehicle: saline 107 % of control

CC(=O)Nc1ccc(SC(Sc2ccc(NC(C)=O)cc2)c2ccccc2)cc1
inactive: [17] 92 % of control | [18] 92 % of control | [19] 92 % of control

Nc1cc(=O)[nH]c(C(F)(F)F)n1
inactive: dose: 29.0 mg/kg/injection, schedule: Q01DX Z (ip), vehicle: saline 119 % of control | dose: 45.0 mg/kg/injection, schedule: Q01DX Z (ip), vehicle: saline 98 % of control | dose: 67.0 mg/kg/injection, schedule: Q01DX Z (ip), vehicle: saline 106 % of control | dose: 100.0 mg/kg/injection, schedule: Q01DX Z (ip), vehicle: saline 104 % of control

O=C(Nc1ccccc1)Nc1ccc([N+](=O)[O-])cc1[N+](=O)[O-]
inactive: dose: 100.0 mg/kg/injection, schedule: Q01DX001 (ip), vehicle: saline with Tween-80 93 % of control | [4] 92 % of control | dose: 200.0 mg/kg/injection, schedule: Q01DX001 (ip), vehicle: saline with Tween-80 92 % of control | [5] 93 % of control | dose: 400.0 mg/kg/injection, schedule: Q01DX001 (ip), vehicle: saline with Tween-80 98 % of control
